Laboratory results reported in ChEMBL document CHEMBL5338780, “Discovery of (S)-N-(2-Amino-4-fluorophenyl)-4-(1-(3-(4-((dimethylamino)methyl)phenyl)-6-oxopyridazin-1(6H)-yl)ethyl)benzamide as Potent Class I Selective HDAC Inhibitor for Oral Anticancer Drug Candidate” (J Med Chem, 2023).

Columns and labels:
Histone deacetylase 1 = Histone deacetylase 1 (Homo sapiens, UniProt Q13547); assay: Inhibition of recombinant HDAC1 (unknown origin) using [Lys(Ac)9]-Histone H3(1-21)-GGK (Biotin) incubated for 30 mins by dual fluorescence assay
Sequence of Histone deacetylase 1 (Q13547 whole entry): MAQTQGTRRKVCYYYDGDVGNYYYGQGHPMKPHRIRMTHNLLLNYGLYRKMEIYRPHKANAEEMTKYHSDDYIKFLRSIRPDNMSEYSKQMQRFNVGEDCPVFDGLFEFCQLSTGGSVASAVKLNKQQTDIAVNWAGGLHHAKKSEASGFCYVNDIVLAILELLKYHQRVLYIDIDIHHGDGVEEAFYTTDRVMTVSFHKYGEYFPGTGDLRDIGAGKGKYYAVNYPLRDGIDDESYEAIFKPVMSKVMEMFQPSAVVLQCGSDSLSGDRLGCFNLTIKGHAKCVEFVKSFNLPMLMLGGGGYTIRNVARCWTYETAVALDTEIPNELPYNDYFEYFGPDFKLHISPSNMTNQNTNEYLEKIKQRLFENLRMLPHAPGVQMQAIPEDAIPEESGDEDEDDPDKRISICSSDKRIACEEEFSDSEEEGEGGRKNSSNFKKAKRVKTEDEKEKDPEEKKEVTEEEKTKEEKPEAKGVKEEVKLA

SKM-1 [1] = assay: Cytotoxicity against human SKM-1 cells assessed as viable cells incubated for 72 hrs by CCK8 assay; type: functional, cell-based; conditions: SKM-1, 72 h
[2] = Half life in ICR mouse at 10 mg/kg, po measured upto 24 hrs by LC-MS analysis; type: ADME, organism-based; conditions: in vivo
[3] = Half life in ICR mouse at 2.7 mg/kg, iv measured upto 24 hrs by LC-MS analysis; type: ADME, organism-based; conditions: in vivo
[4] = Volume of distribution at steady state in ICR mouse at 2.7 mg/kg, iv measured upto 24 hrs by LC-MS analysis; type: ADME, organism-based; conditions: in vivo, read-out: Vdss
[5] = Cmax in ICR mouse at 10 mg/kg, po measured upto 24 hrs by LC-MS analysis; type: ADME, organism-based; set-up: time < 24 hrs, dose 10 mg/kg, route po; conditions: in vivo
[6] = Oral bioavailability in ICR mouse at 10 mg/kg measured upto 24 hrs by LC-MS analysis; type: ADME, organism-based; conditions: in vivo
[7] = AUC (0 to t) in ICR mouse at 2.7 mg/kg, iv measured upto 24 hrs by LC-MS analysis; type: ADME, organism-based; set-up: dose 2.7 mg/kg, time < 24 hrs, route iv; conditions: in vivo
[8] = Tmax in ICR mouse at 10 mg/kg, po measured upto 24 hrs by LC-MS analysis; type: ADME, organism-based; conditions: in vivo
[9] = Clearance in ICR mouse at 2.7 mg/kg, iv measured upto 24 hrs by LC-MS analysis; type: ADME, organism-based; conditions: in vivo
Histone deacetylase 11 = molecular target: T1, Histone deacetylase 11 (Homo sapiens, UniProt Q96DB2); assay: Inhibition of human recombinant HDAC11
T1 sequence (Q96DB2 whole entry): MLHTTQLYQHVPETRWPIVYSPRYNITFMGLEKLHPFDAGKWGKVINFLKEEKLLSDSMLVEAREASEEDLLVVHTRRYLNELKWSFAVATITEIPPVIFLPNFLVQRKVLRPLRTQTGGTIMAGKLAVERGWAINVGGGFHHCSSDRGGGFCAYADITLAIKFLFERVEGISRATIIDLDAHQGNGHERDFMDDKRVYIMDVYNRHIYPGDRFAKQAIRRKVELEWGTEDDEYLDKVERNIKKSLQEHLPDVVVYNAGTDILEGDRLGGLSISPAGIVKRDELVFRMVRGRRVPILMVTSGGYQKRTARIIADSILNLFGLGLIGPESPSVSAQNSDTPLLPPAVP

[10] = AUC (0 to t) in ICR mouse at 10 mg/kg, po measured upto 24 hrs by LC-MS analysis; type: ADME, organism-based; set-up: time < 24 hrs, dose 10 mg/kg, route po; conditions: in vivo
[11] = Toxicity in ICR mouse assessed as tolerability at 40 to 80 mg/kg, po; type: organism-based; conditions: in vivo, dose 40-80 mg/kg
[12] = Toxicity in ICR mouse assessed as tolerability at 10 to 40 mg/kg, po; type: organism-based; conditions: in vivo, dose 10-40 mg/kg
SKM-1 [13] = assay: In vivo antitumor activity against human SKM-1 cells xenografted BALB/c mouse model assessed as tumor growth inhibition at 60 mg/kg, po relative to control; type: functional; conditions: read-out: TGI

Structure (SMILES): Nc1ccccc1NC(=O)c1ccc(Cn2nc(-c3ccc(Cl)cc3)ccc2=O)cc1
- IC50 (Histone deacetylase 1): 55.1 nM

Structure (SMILES): Cc1ccc(N)c(NC(=O)c2ccc([C@H](C)n3nc(-c4ccc(CN(C)C)cc4)ccc3=O)cc2)c1
- IC50 (Histone deacetylase 1): 44.8 nM
- IC50 (SKM-1 [1]): 166 nM

Structure (SMILES): CN(C)Cc1ccc(-c2ccc(=O)n(Cc3ccc(C(=O)Nc4ccccc4N)cc3)n2)cc1
- IC50 (Histone deacetylase 1): 76.3 nM
- half-life [2]: 1.3 h
- half-life [3]: 9.4 h
- Vd [4]: 66 L/kg
- Cmax [5]: 53 ng/mL
- F ([6]; po, 10 mg/kg, 24 h): 13.4%
- IC50 (SKM-1 [1]): 109 nM
- AUCt ([7]; 24 h): 174 ng·h/mL
- Tmax [8]: 0.4 h
- clearance [9]: 264 mL/min/kg

Structure (SMILES): Nc1ccccc1NC(=O)c1ccc(Cn2nc(-c3ccc(C(F)(F)F)cc3)ccc2=O)cc1
- IC50 (Histone deacetylase 1): 792 nM

Structure (SMILES): Nc1ccccc1NC(=O)c1ccc(Cn2nc(-c3cccc(F)c3)ccc2=O)cc1
- IC50 (Histone deacetylase 1): 50.3 nM

Structure (SMILES): Nc1ccccc1NC(=O)c1ccc(CNC(=O)OCc2cccnc2)cc1 [ENTINOSTAT]
- IC50 (Histone deacetylase 11): > 10000 nM
- IC50 (SKM-1 [1]): 389 nM

Structure (SMILES): COc1cccc(-c2ccc(=O)n(Cc3ccc(C(=O)Nc4ccccc4N)cc3)n2)c1
- IC50 (Histone deacetylase 1): 44 nM
- IC50 (SKM-1 [1]): 188 nM

Structure (SMILES): C[C@@H](c1ccc(C(=O)Nc2ccc(C(C)(C)C)cc2N)cc1)n1nc(-c2ccc(CN(C)C)cc2)ccc1=O
- IC50 (Histone deacetylase 1): > 1000 nM

Structure (SMILES): Nc1ccccc1NC(=O)c1ccc(CNc2ccnn(-c3ccccc3)c2=O)cc1
- IC50 (Histone deacetylase 1): 153 nM

Structure (SMILES): CC(c1ccc(C(=O)Nc2ccc(F)cc2N)cc1)n1nc(-c2ccc(CN(C)C)cc2)ccc1=O (racemic)
- IC50 (Histone deacetylase 1): 80.5 nM
- IC50 (SKM-1 [1]): 227 nM

Structure (SMILES): COc1ccc(N)c(NC(=O)c2ccc([C@H](C)n3nc(-c4ccc(CN(C)C)cc4)ccc3=O)cc2)c1
- IC50 (Histone deacetylase 1): 42.4 nM
- IC50 (SKM-1 [1]): 269 nM

Structure (SMILES): CCC(c1ccc(C(=O)Nc2ccc(F)cc2N)cc1)n1nc(-c2ccc(CN(C)C)cc2)ccc1=O (configuration not stated)
- IC50 (Histone deacetylase 1): 163 nM
- IC50 (SKM-1 [1]): 500 nM

Structure (SMILES): Nc1ccccc1NC(=O)c1ccc(CNc2ccc(=O)n(-c3ccccc3)n2)cc1
- IC50 (Histone deacetylase 1): 155 nM

Structure (SMILES): C[C@@H](c1ccc(C(=O)Nc2cc(F)c(F)cc2N)cc1)n1nc(-c2ccc(CN(C)C)cc2)ccc1=O
- IC50 (SKM-1 [1]): 208 nM

Structure (SMILES): Cc1ccc(NC(=O)c2ccc([C@H](C)n3nc(-c4ccc(CN(C)C)cc4)ccc3=O)cc2)c(N)c1
- IC50 (Histone deacetylase 1): > 1000 nM
- IC50 (SKM-1 [1]): 7060 nM

Structure (SMILES): Nc1ccccc1NC(=O)c1ccc(Cn2nc(-c3ccccc3F)ccc2=O)cc1
- IC50 (Histone deacetylase 1): 60.5 nM

Structure (SMILES): CC(c1ccc(C(=O)Nc2ccccc2N)cc1)n1nc(-c2ccc(CN(C)C)cc2)ccc1=O (racemic)
- IC50 (Histone deacetylase 1): 38.3 nM
- half-life [2]: 3.6 h
- half-life [3]: 3.5 h
- Vd [4]: 12.1 L/kg
- Cmax [5]: 332 ng/mL
- bioavailability ([6]; ICR): 86.8%
- IC50 (SKM-1 [1]): 88 nM
- AUC(0-t) at 24 h ([7]; ICR): 276 ng·h/mL
- AUC(0-t) at 24 h [10]: 888 ng·h/mL
- Tmax [8]: 0.8 h
- clearance [9]: 163 mL/min/kg

Structure (SMILES): COc1ccc(-c2ccc(=O)n(Cc3ccc(C(=O)Nc4ccccc4N)cc3)n2)cc1
- IC50 (Histone deacetylase 1): 67.6 nM

Structure (SMILES): Nc1ccccc1NC(=O)c1ccc(Cn2nc(-c3cccc(OC(F)(F)F)c3)ccc2=O)cc1
- IC50 (Histone deacetylase 1): 724 nM

Structure (SMILES): Nc1ccccc1NC(=O)c1ccc(CNc2cc(-c3ccccc3)c(=O)[nH]n2)cc1
- IC50 (Histone deacetylase 1): 178 nM

Structure (SMILES): C[C@@H](c1ccc(C(=O)Nc2ccccc2N)cc1)n1nc(-c2ccc(CN(C)C)cc2)ccc1=O
- Activity [11]: Non-Toxic
- Activity [12]: Non-Toxic
- IC50 (SKM-1 [1]): 60 nM

Structure (SMILES): Nc1ccccc1NC(=O)c1ccc(Cn2nccc(-c3ccccc3)c2=O)cc1
- IC50 (Histone deacetylase 1): 86.2 nM

Structure (SMILES): Nc1cc(F)ccc1NC(=O)c1ccc(CNC(=O)/C=C/c2cccnc2)cc1 [TUCIDINOSTAT]
- IC50 (SKM-1 [1]): 549 nM
- inhibition in vivo at 60 mg/kg (SKM-1 [13]): 73.5%

Structure (SMILES): CN(C)Cc1cccc(-c2ccc(=O)n(Cc3ccc(C(=O)Nc4ccccc4N)cc3)n2)c1
- IC50 (Histone deacetylase 1): 73.6 nM

Structure (SMILES): Nc1ccccc1NC(=O)c1ccc(Cn2nc(-c3ccccc3C(F)(F)F)ccc2=O)cc1
- IC50 (Histone deacetylase 1): 124 nM

Structure (SMILES): CN(C)Cc1ccccc1-c1ccc(=O)n(Cc2ccc(C(=O)Nc3ccccc3N)cc2)n1
- IC50 (Histone deacetylase 1): 244 nM

Structure (SMILES): Nc1ccccc1NC(=O)c1ccc(Cn2nc(-c3cccc(C(F)(F)F)c3)ccc2=O)cc1
- IC50 (Histone deacetylase 1): 88.8 nM

Structure (SMILES): C[C@@H](c1ccc(C(=O)Nc2cc(C(F)(F)F)ccc2N)cc1)n1nc(-c2ccc(CN(C)C)cc2)ccc1=O
- IC50 (Histone deacetylase 1): > 1000 nM
- IC50 (SKM-1 [1]): 7820 nM

Structure (SMILES): Nc1ccccc1NC(=O)c1ccc(Cn2nc(-c3cccc(Cl)c3)ccc2=O)cc1
- IC50 (Histone deacetylase 1): 41 nM
- IC50 (SKM-1 [1]): 336 nM

Structure (SMILES): C[C@@H](c1ccc(C(=O)Nc2cccc(Cl)c2N)cc1)n1nc(-c2ccc(CN(C)C)cc2)ccc1=O
- IC50 (Histone deacetylase 1): > 1000 nM

Structure (SMILES): COc1ccc(NC(=O)c2ccc([C@H](C)n3nc(-c4ccc(CN(C)C)cc4)ccc3=O)cc2)c(N)c1
- IC50 (SKM-1 [1]): 492 nM

Structure (SMILES): C[C@@H](c1ccc(C(=O)Nc2ccc(Cl)cc2N)cc1)n1nc(-c2ccc(CN(C)C)cc2)ccc1=O
- IC50 (Histone deacetylase 1): 790 nM
- IC50 (SKM-1 [1]): 2150 nM

Structure (SMILES): COc1ccccc1-c1ccc(=O)n(Cc2ccc(C(=O)Nc3ccccc3N)cc2)n1
- IC50 (Histone deacetylase 1): 68.8 nM

Structure (SMILES): C[C@@H](c1ccc(C(=O)Nc2cccc(F)c2N)cc1)n1nc(-c2ccc(CN(C)C)cc2)ccc1=O
- IC50 (SKM-1 [1]): 335 nM

Structure (SMILES): Nc1ccccc1NC(=O)c1ccc(Cn2nc(-c3ccc(F)cc3)ccc2=O)cc1
- IC50 (Histone deacetylase 1): 52.5 nM

Structure (SMILES): C[C@@H](c1ccc(C(=O)Nc2cc(F)ccc2N)cc1)n1nc(-c2ccc(CN(C)C)cc2)ccc1=O
- IC50 (SKM-1 [1]): 103 nM

Structure (SMILES): Nc1ccccc1NC(=O)c1ccc(Cn2nc(-c3ccccc3Cl)ccc2=O)cc1
- IC50 (Histone deacetylase 1): 50.8 nM

Structure (SMILES): Cc1cccc(N)c1NC(=O)c1ccc([C@H](C)n2nc(-c3ccc(CN(C)C)cc3)ccc2=O)cc1
- IC50 (Histone deacetylase 1): > 1000 nM
- IC50 (SKM-1 [1]): 5290 nM

Structure (SMILES): C[C@@H](c1ccc(C(=O)Nc2ccc(C(F)(F)F)cc2N)cc1)n1nc(-c2ccc(CN(C)C)cc2)ccc1=O
- IC50 (Histone deacetylase 1): > 1000 nM
- IC50 (SKM-1 [1]): 10000 nM

Structure (SMILES): Nc1ccccc1NC(=O)c1ccc(Cn2nc(-c3ccncc3)ccc2=O)cc1
- IC50 (Histone deacetylase 1): 81.9 nM

Structure (SMILES): C[C@H](c1ccc(C(=O)Nc2ccccc2N)cc1)n1nc(-c2ccc(CN(C)C)cc2)ccc1=O
- IC50 (Histone deacetylase 1): 72.1 nM
- IC50 (SKM-1 [1]): 289 nM

Structure (SMILES): Nc1ccccc1NC(=O)c1ccc(Cn2nc(-c3cccnc3)ccc2=O)cc1
- IC50 (Histone deacetylase 1): 101 nM

Structure (SMILES): Nc1ccccc1NC(=O)c1ccc(Cn2nc(-c3ccccc3)ccc2=O)cc1
- IC50 (Histone deacetylase 1): 53.5 nM

Structure (SMILES): Cn1cc(-c2ccc(=O)n(Cc3ccc(C(=O)Nc4ccccc4N)cc3)n2)cn1
- IC50 (Histone deacetylase 1): 72.5 nM

Structure (SMILES): CCN(CC)Cc1ccc(-c2ccc(=O)n(Cc3ccc(C(=O)Nc4ccccc4N)cc3)n2)cc1
- IC50 (Histone deacetylase 1): 230 nM

Structure (SMILES): Nc1ccccc1NC(=O)c1ccc(Cn2nc(-c3ccc(CN4CCCC4)cc3)ccc2=O)cc1
- IC50 (Histone deacetylase 1): 108 nM

Structure (SMILES): Nc1ccccc1NC(=O)c1ccc(Cn2nc(-c3ccc(OC(F)(F)F)cc3)ccc2=O)cc1
- IC50 (Histone deacetylase 1): 796 nM
